Data as given in patent US6472348B1, “Pyridone derivatives and herbicides” (Kumiai Chemical Industry Co., Ltd., priority 1996, dated 2002).

Experiments:
Assay type in all cases: in vivo
monochoria (Mo) = experiment: Test Example 1: herbicidal effects by paddy field soil treatment; details: 100 g of the active ingredient per 10 ares, 21st day after the application, index 0-5 of Table 47;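 note: grade of growth control; 5 = at least 90%; 4 = 70 to 90%; 3 = 50 to 70%; 2 = 30 to 50%; 1 = 10 to 30%; 0 = under 10%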
Procedure, shortened: (§1)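 Flooded paddy-soil pots (3 cm water) sown after puddling/leveling; treatment 100 g a.i./10 ares; greenhouse culture; herbicidal effect rated visually on a scoring scale at 21 d post-application.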

barnyardgrass (Ec) [1] = experiment: as above; details: 100 g of the active ingredient per 10 ares, 21st day after the application, index 0-5 of Table 47
Procedure, shortened: as §1

bulrush (Sc) = experiment: as above; details: 100 g of the active ingredient per 10 ares, 21st day after the application, index 0-5 of Table 47;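 note: grade of growth control; 5 = at least 90%; 4 = 70 to 90%; 3 = 50 to 70%; 2 = 30 to 50%; 1 = 10 to 30%; 0 = under 10%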
Procedure, shortened: as §1

cotton (Go) = experiment: Test Example 4: crop plant selectivity by upland field soil treatment (cotton), phytotoxicity; set-up: scale not given here; details: dose 6.3 g ai/10 a, evaluated 21st day after application
Description: (§2) (Test on Crop Plant Selectivity by Upland Field Soil Treatment)
(§3) In a plastic pot (surface area: 600 cm^2) filled with sand, cotton (Go), Diaitaria ciliaris (Di), green foxtail (Se), pale smartweed (Po), slender amaranth (Am), common lambsquarters (Ch) and China jute (Ab) were sown and covered with soil. […] The plants were then cultured in a green house, and the evaluation of the herbicidal effects and phytotoxicity was conducted on the 21st day after the application in accordance with the standards as identified in Table 47. Symbol—represents “not tested”.

pale smartweed (Po) [2] = experiment: Test Example 3: herbicidal effects by upland field foliage treatment; set-up: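 grade of growth control; 5 = at least 90%; 4 = 70 to 90%; 3 = 50 to 70%; 2 = 30 to 50%; 1 = 10 to 30%; 0 = under 10%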; details: 100 g active ingredient per 10 ares, evaluated 14th day after treatment
Procedure, shortened: (§4)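 Post-emergence upland foliage test. Seedlings grown 2 weeks under glass in pots (120 cm^2) of sand, seed topped with soil; treated on the foliage, kept in greenhouse, then assessed at day 14 using rating standards.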

slender amaranth (Am) [3] = experiment: as above; set-up: scale not given here; details: 100 g active ingredient per 10 ares, evaluated 14th day after treatment
Procedure, shortened: as §4

[4] = tested on: common lambsquarters (Ch); experiment: as above; set-up: scale not given here; details: 100 g active ingredient per 10 ares, evaluated 14th day after treatment
Procedure, shortened: as §4

barnyardgrass (Ec) [5] = experiment: as above; set-up: scale not given here; details: 100 g active ingredient per 10 ares, evaluated 14th day after treatment
Procedure, shortened: as §4

Diaitaria ciliaris (Di) = experiment: as above; set-up: scale not given here; details: 100 g active ingredient per 10 ares, evaluated 14th day after treatment
Procedure, shortened: as §4

rice flatsedge (Ci) [6] = experiment: as above; set-up: scale not given here; details: 100 g active ingredient per 10 ares, evaluated 14th day after treatment
Procedure, shortened: as §4

pale smartweed (Po) [7] = experiment: Test Example 2: herbicidal effects by upland field soil treatment; details: 100 g of the active ingredient per 10 ares, evaluated on the 21st day after application;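 note: grade of growth control; 5 = at least 90%; 4 = 70 to 90%; 3 = 50 to 70%; 2 = 30 to 50%; 1 = 10 to 30%; 0 = under 10%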
Description: (§5) (Test on Herbicidal Effects by Upland Field Soil Treatment)

slender amaranth (Am) [8] = experiment: as above; details: 100 g of the active ingredient per 10 ares, evaluated on the 21st day after application
Description: as §5

[9] = tested on: common lambsquarters (Ch); experiment: as above; details: 100 g of the active ingredient per 10 ares, evaluated on the 21st day after application
Description: as §5

barnyardgrass (Ec) [10] = experiment: as above; details: 100 g of the active ingredient per 10 ares, evaluated on the 21st day after application
Description: as §5

Digitaria ciliaris (Di) = experiment: as above; details: 100 g of the active ingredient per 10 ares, evaluated on the 21st day after application;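 note: grade of growth control; 5 = at least 90%; 4 = 70 to 90%; 3 = 50 to 70%; 2 = 30 to 50%; 1 = 10 to 30%; 0 = under 10%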
Description: as §5

rice flatsedge (Ci) [11] = experiment: as above; details: 100 g of the active ingredient per 10 ares, evaluated on the 21st day after application
Description: as §5

pale smartweed (Po) [12] = experiment: Test Example 6: crop plant selectivity by upland field soil treatment (soybean), herbicidal effects; set-up: scale not given here; details: dose 6.3 g ai/10a, 21st day after application
Description: as §2
(§6) In a plastic pot (surface area: 600 cm^2) filled with sand, soybean (Gl), Diaitaria ciliaris (Di), green foxtail (Se), Johnsongrass (So), pale smartweed (Po), slender amaranth (Am), common lambsquarters (Ch) and China jute (Ab) were sown and covered with soil. […] The plants were then cultured in a green house, and the evaluation of the herbicidal effects and phytotoxicity was conducted on the 21st day after the application in accordance with the standards as identified in Table 47. Symbol—represents “not tested”.

slender amaranth (Am) [13] = experiment: as above; set-up: scale not given here; details: dose 6.3 g ai/10a, 21st day after application
Description: as §2, §6

[14] = tested on: common lambsquarters (Ch); experiment: as above; set-up: scale not given here; details: dose 6.3 g ai/10a, 21st day after application
Description: as §2, §6

green foxtail (Se) [15] = experiment: as above; set-up: scale not given here; details: dose 6.3 g ai/10a, 21st day after application
Description: as §2, §6

China jute (Ab) [16] = experiment: as above; set-up: scale not given here; details: dose 6.3 g ai/10a, 21st day after application
Description: as §2, §6

soybean (Gl) = experiment: Test Example 6: crop plant selectivity by upland field soil treatment (soybean), phytotoxicity; set-up: scale not given here; details: dose 6.3 g ai/10a, 21st day after application
Description: as §2, §6

pale smartweed (Po) [17] = experiment: Test Example 5: crop plant selectivity by upland field soil treatment (wheat), herbicidal effects; set-up: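 grade of growth control; 5 = at least 90%; 4 = 70 to 90%; 3 = 50 to 70%; 2 = 30 to 50%; 1 = 10 to 30%; 0 = under 10%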; details: dose 6.3 g ai/10a, 21st day after application
Description: as §2
(§7) In a plastic pot (surface area: 600 cm^2) filled with sand, wheat (Tr), Diaitaria ciliaris (Di), green foxtail (Se), pale smartweed (Po), slender amaranth (Am), common lambsquarters (Ch) and China jute (Ab) were sown and covered with soil. […] The plants were then cultured in a green house, and the evaluation of the herbicidal effects and phytotoxicity was conducted on the 21st day after the application in accordance with the standards as identified in Table 47. Symbol—represents “not tested”.

slender amaranth (Am) [18] = experiment: as above; set-up: scale not given here; details: dose 6.3 g ai/10a, 21st day after application
Description: as §2, §7

[19] = tested on: common lambsquarters (Ch); experiment: as above; set-up: scale not given here; details: dose 6.3 g ai/10a, 21st day after application
Description: as §2, §7

green foxtail (Se) [20] = experiment: as above; set-up: scale not given here; details: dose 6.3 g ai/10a, 21st day after application
Description: as §2, §7

China jute (Ab) [21] = experiment: as above; set-up: scale not given here; details: dose 6.3 g ai/10a, 21st day after application
Description: as §2, §7

pale smartweed (Po) [22] = experiment: Test Example 4: crop plant selectivity by upland field soil treatment (cotton), herbicidal effects; set-up: scale not given here; details: dose 6.3 g ai/10 a, evaluated 21st day after application
Description: as §2, §3

slender amaranth (Am) [23] = experiment: as above; set-up: scale not given here; details: dose 6.3 g ai/10 a, evaluated 21st day after application
Description: as §2, §3

[24] = tested on: common lambsquarters (Ch); experiment: as above; set-up: scale not given here; details: dose 6.3 g ai/10 a, evaluated 21st day after application
Description: as §2, §3

green foxtail (Se) [25] = experiment: as above; set-up: scale not given here; details: dose 6.3 g ai/10 a, evaluated 21st day after application
Description: as §2, §3

China jute (Ab) [26] = experiment: as above; set-up: scale not given here; details: dose 6.3 g ai/10 a, evaluated 21st day after application
Description: as §2, §3

wheat (Tr) = experiment: Test Example 5: crop plant selectivity by upland field soil treatment (wheat), phytotoxicity; set-up: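 grade of crop injury; 5 = at least 90%; 4 = 70 to 90%; 3 = 50 to 70%; 2 = 30 to 50%; 1 = 10 to 30%; 0 = under 10%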; details: dose 6.3 g ai/10a, 21st day after application
Description: as §2, §7

With `C#CCN1C(=O)C(C)Oc2cc(Cl)c(-c3ccc(C(F)(F)F)n(C)c3=O)cc21` (stereo not drawn) [Compound No. 2′-1, 3-[7-chloro-2,3-dihyro-2-methyl-4-(2-propynyl)-1,4-benzoxazin-3-on-6-yl]-6-trifluoromethyl-1-methyl-2(1H)-pyridone] the “Herbicidal effects Mo” value (monochoria (Mo)) was 5, the “Herbicidal effects Ec” value (barnyardgrass (Ec) [1]) was 5 and the “Herbicidal effects Sc” value (bulrush (Sc)) was 5. The “Phytotoxicity Go” value (cotton (Go)) was 1, the “Herbicidal effects Po” value (pale smartweed (Po) [2]) was 5 and the “Herbicidal effects Am” value (slender amaranth (Am) [3]) was 5. For the same compound, the “Herbicidal effects Ch” value [4] was 5, the “Herbicidal effects Ec” value (barnyardgrass (Ec) [5]) was 5 and the “Herbicidal effects Di” value (Diaitaria ciliaris (Di)) was 5. For the same compound, the “Herbicidal effects Ci” value (rice flatsedge (Ci) [6]) was 5, the “Herbicidal effects Po” value (pale smartweed (Po) [7]) was 5 and the “Herbicidal effects Am” value (slender amaranth (Am) [8]) was 5. For the same compound, the “Herbicidal effects Ch” value [9] was 5, the “Herbicidal effects Ec” value (barnyardgrass (Ec) [10]) was 5 and the “Herbicidal effects Di” value (Digitaria ciliaris (Di)) was 5. The “Herbicidal effects Ci” value (rice flatsedge (Ci) [11]) was 5, the “Herbicidal effects Po” value (pale smartweed (Po) [12]) was 5 and the “Herbicidal effects Am” value (slender amaranth (Am) [13]) was 5. The “Herbicidal effects Ch” value [14] was 5, the “Herbicidal effects Se” value (green foxtail (Se) [15]) was 5 and the “Herbicidal effects Ab” value (China jute (Ab) [16]) was 5. The “Phytotoxicity Gl” value (soybean (Gl)) was 1, the “Herbicidal effects Po” value (pale smartweed (Po) [17]) was 5 and the “Herbicidal effects Am” value (slender amaranth (Am) [18]) was 5. For the same compound, the “Herbicidal effects Ch” value [19] was 5, the “Herbicidal effects Se” value (green foxtail (Se) [20]) was 5 and the “Herbicidal effects Ab” value (China jute (Ab) [21]) was 5. For the same compound, the “Herbicidal effects Po” value (pale smartweed (Po) [22]) was 5, the “Herbicidal effects Am” value (slender amaranth (Am) [23]) was 5 and the “Herbicidal effects Ch” value [24] was 5. For the same compound, the “Herbicidal effects Se” value (green foxtail (Se) [25]) was 5, the “Herbicidal effects Ab” value (China jute (Ab) [26]) was 5 and the “Phytotoxicity Tr” value (wheat (Tr)) was 2.
